Measured values published in patent US6083920A, “Compositions for modulating intracellular inositol trisphosphate concentration” (priority 1996, dated 2000).
Where “and” joins values, the source holds several entries; their conditions need not be identical. Equal values may be shown once.

Key:
[1] = Lysosphingolipid loading of isolated neuronal plasma membrane; type: in vitro ADME, chick; details: Plasma Membrane Suspension, 10 μmolar exposure
Excerpt: Total lipids were removed from the neuron samples by repeated extraction with chloroforn:methanol (2:1, vol:vol). […] The recovered lysosphingolipids were stably tagged with NBDZF by the rapid procedure of Nozowa et al. (supra). The fluorescence tagged neuronal lysosphingolipids were separated in parallel with reference standards NBDZF-Sph, NBDZF-Psy, and NBDZF-Lsm on high performance silica gel thin layer chromatography plates with acetonitrile:H2 O (10:0.5, vol:vol). The highly fluorescent, well separated bands were scraped from the plate. The fluorescence tagged lysosphingolipids are eluted from the scraped silica gel with methanol:1 N HCl (1:0.02, vol:vol). The fluorescence tagged lysosphingolipid eluates were quantitated against reference standards by fluorescence measurement in a Perkin-Elmer LS-5 Fluorescence Spectrometer.
Physiologically active phospholipase C is present on the endofacial portion of the plasma membrane. A procedure for examining its activity in an intact membrane is provided. […] One hundred Petri dishes of cultured cortical neurons were incubated overnight with 50 μCi [^3 H]myo-inositol per mL of culture medium. […] The collected neurons were homogenized in 5 mL 0.32 M sucrose and centrifuged at 1000×g for 15 minutes. The supernatant was layered on top of 2 ml 1.2 M sucrose and centrifuged at 300,000×g for 20 minutes. The sedimented pellet was resuspended by sonication for 10 seconds in 50 mM Tris buffer (pH 7.4), containing 0.3 μM CaCl2, 1 mM MgCl2, and 0.01% ascorbic acid.
The suspended plasma membrane preparation was apportioned into 250 μl samples, each providing approximately 100 μg membrane protein. Sphingosine, psychosine, and lysosphingomyelin were added to each plasma membrane sample. […] Samples were analyzed for lysosphingolipid loading (i.e., membrane lysosphingolipid content following exposure to exogenous sphingolipid) by fluorescence tagging. […] Values are reported in pmoles lysosphingolipid/mg plasma membrane protein.

[2] = tested on: phospholipase C isoforms beta, delta, and gamma
Protocol: The effects of sphingosine, lysocerebroside, and lysosphingomyelin on the kinetics of pure, immunologically isolated phospholipase C isoforms beta, delta, and gamma (which are commercially available) was examined. For each isoform, 10 μM sphingosine was added to a reaction medium consisting of 1 μg phospholipase C isoform/ml, Tris-malate buffer (50 mM, pH 7.0) containing 100 μM phosphatidyl inositol bis-phosphate tri-ammonium salt, 0.01 μCi tritium labeled phosphatidyl inositol bis-phosphate, 100 mM NaCl, 10 mM CaCl2, and 5 mM 2-merceptoethanol.

[3] = tested on: metabotropic glutamate receptor; test: Behavioral analysis after ICV infusion (quisqualate excitotoxicity); type: in vivo, male F344 rats; details: for convulsant behavior, compound alone: no quisqualate; for number of convulsions or spasms: n=6
Protocol: The animals used in this experiment were male F344 rats (Charles River Breeding Laboratories). The animals were housed individually, exposed to a 12-hour light-dark cycle, and allowed free access to food and water. The animals weighed approximately 250 g at the beginning of each experiment and were weighed daily. In addition, the animals were habituated to handling before each experiment.
Before administering various compounds, the animals were anesthetized with sodium pentobarbital (50 mg/kg, i.p.) and positioned in a sterotaxic instrument. A 26 gauge cannula was inserted into the cerebral ventricle at the following co-ordinates: 1.0 mm posterior to bregma, 1.5 mm lateral to the midline, and 4.0 mm below the dorsal surface of the neocortex. Cannulas were capped and fixed in place with dental cement. One week after cannulation, 10 μl of each of the treatment drugs was infused, ICV (i.e. into the ventricals of the brain), via a micropump at a rate of 10 μl/min. For this procedure, the animals were lightly restrained and unanesthetized. Following administration of the compound, the infusion cannula remained in position for one minute, after which the permanent in situ cannula was capped.
The compounds administered were obtained from a commercial supplier (Sigma Chemical Co., St. Louis, Mo.) and dissolved in saline prior to injection. […]
Pilot studies identified several specific behavioral measures that could be used to indicate excessive activation of the metabotropic receptor (see Table 3). […] The experiments that follow were based on an analysis of these behaviors over a two hour period after administration of the compounds of the invention. Behavioral observation was carried out by two trained observers, who worked independently of one another and who were blind to the experimental groups. […] Frequency and duration means were computed by subtracting pre-infusion means from post-infusion means.
Some of the experiments that were performed first were carried out to determine the amount of quisqualate required to produce behavioral and histological changes and the amount of lysosphingolipids that could effectively prevent or reverse these effects. Table 3 outlines the behavioral responses of rats to various doses of quisqualate (injected as described above) and the associated histological changes. The behaviors are listed as they occur chronologically. The limb clasp and reflex tests indicate the degree of decortication. A limb clasp or placement score of zero is normal, and a score of 3 is severely abnormal.
The data shown in Table 4 represents the observations of pilot studies aimed at determining the effect (on behavior) of lysosphingolipids infused directly into the lateral ventricles of the brain 30 minutes prior to infusion of quisqualate.
The experiment began one week after ICV cannulation. Animals (n=6 per group) were randomly allocated to one of 8 treatment groups: (1) saline, (2) quisqualate at 225 nmoles, (3) psychosine at 125 nmoles, (4) lysosphingomyelin at 125 nmoles, (5) lysosphingomyelin at 150 nmoles, (6) quisqualate at 225 nmoles and psychosine at 125 nmoles, (7) quisqualate at 225 nmoles and lysosphingomyelin at 125 nmoles, and (8) quisqualate at 225 nmoles and lysosphingomyelin at 150 nmoles. Following the baseline observation period, animals received the first of two ICV infusions (all infusions were of a 10 μl volume that was administered over a 1 minute period). For the first five groups listed above, this consisted of saline (10 μl/minute), for the following 3 groups the infusions were psychosine at 125 nmoles, lysosphingomyelin at 125 nmoles, or Iysosphingomyelin at 150 nmoles, respectively. Thirty minutes later, all animals received the second infusion which, for the first five groups listed above, consisted of saline, quisqualate at 225 nmoles, psychosine at 125 nmoles, lysosphingomyelin at 125 mrnoles, and lysosphingomyelin at 150 nmoles respectively. […]

[4] = 10 μM lysocerebroside or 5 μM lysosphingomyelin

In the case of `CCCCCCCCCCCCC/C=C/[C@@H](O)[C@@H](N)COP(=O)([O-])OCC[N+](C)(C)C` [lysosphingomyelin, sphingosyl phosphoryicholine], the “membrane lysosphingolipid content, 0 hours of incubation” value ([1]; 0 h) is reported as 5 ± 1 pmoles lysosphingolipid/mg pla, the “membrane lysosphingolipid content, 0.5 hours of incubation” value ([1]; 0.5 h) is reported as 65 ± 15 pmoles lysosphingolipid/mg pla and the “membrane lysosphingolipid content, 1.0 hours of incubation” value ([1]; 1.0 h) is reported as 110 ± 15 pmoles lysosphingolipid/mg pla. The “membrane lysosphingolipid content, 2.0 hours of incubation” value ([1]; 2.0 h) was 120 ± 10 pmoles lysosphingolipid/mg pla, the “membrane lysosphingolipid content, 3.0 hours of incubation” value ([1]; 3.0 h) was 145 ± 25 pmoles lysosphingolipid/mg pla and the “diminution in Vmax” value [2, 4] was 60%±10%. For the same molecule, the “increase in calcium ion concentration required for optimal activity” value [2, 4] was 5 fold, the “effect on KM for substrate phosphatidylinositol bis-phosphate” value ([2]; 10 μM sphingosine, 10 μM lysocerebroside, 5 μM lysosphingomyelin) was “no change” and the “convulsant behavior, compound alone” value ([3]; 125 nmoles ICV) was “displayed no convulsant behavior”. For the same molecule, the “convulsant behavior, compound alone” value ([3]; 150 nmoles ICV) was “displayed no convulsant behavior”, the effective dose ([3]; ICV, rat, pilot testing) was 125 nmol and 150 nmol and the “sedation produced by the lysosphingolipid” value ([3]; Lysosphingomyelin 150 nmoles ICV) was “mild sedation”. The “behavioral or neurotoxic effects of the compound itself” value ([3]; doses as high as 125 nmoles per animal ICV) was “no behavioral or neurotoxic effects were observed”, the “behavioral and histological changes caused by quisqualate” value ([3]; pretreated with 125 nmoles ICV, rat) was “absent” and the “number of convulsions or spasms” value ([3]; pretreatment 125 nmoles ICV 30 minutes before quisqualate 225 nmoles) was “significantly (p<01) attenuated”. The “number of convulsions or spasms” value ([3]; pretreatment 150 nmoles ICV 30 minutes before quisqualate 225 nmoles) was “significantly (p<01) attenuated” and the “time quisqualate-alone animals spent in teeth chattering, akinesia and mobilization compared with this group” value ([3]; quisqualate 225 nmoles and lysophingomyelin 150 nmoles ICV) was “significantly (p<.01) more time”.
